Results reported in patent publication US20210254001A1, “FcyRIIIa signaling generates Bcl6+PD1+CD4+ Tfh-like cells” (priority 2020, published 2021).
Entries after “also recorded” stand apart in the source; their conditions may differ.

Tested on: purified human CD4+ T cells
Experiment: IL-21 production in IC-treated CD4+ T cells with Syk inhibitor
Assay type: cell-based
Settings: P505 10 nM; cells producing IL-21 from IC treatment; FIG. 4F (A)

In the case of `NC(=O)c1cnc(N[C@@H]2CCCC[C@@H]2N)nc1Nc1cccc(-n2nccn2)c1` [P505], the IL-21 production is reported as “IL-21 production is blocked; also recorded: inhibits IL-21 production”.
